“Also recorded” adds a separate entry of the source.
Key:
[1] = test system: women with a history of or susceptible to pregnancy-induced hypertension syndrome; test: Tacrolimus treatment of women at risk of pregnancy-induced hypertension syndrome (Example 3); format: in vivo, human
Experimental: Once pregnancy-induced hypertension syndrome develops, the possibility of experiencing repeated onset in the subsequent gestations is very high. The patients were evaluated through a transvaginal ultrasound examination, a Fallopian tube patency test, and hysteroscopy before an index ART cycle. […] Any women who had experienced miscarriage in the previous IVF cycle, who had received an IVF cycle, or who had received vaccination, all within three months, were excluded from the subjects. Any women with acquired or congenital thrombophilia were excluded from the subjects. All the patients were subjected to treatment with tacrolimus in the same manner as in Example 2. The dose of tacrolimus was 1 mg to 3 mg per day. The duration of administration of tacrolimus was from the time point immediately after establishment of pregnancy was confirmed by a pregnancy test, until the day of delivery, in all cases. In Case 1 and Case 3 described below, 3 mg of tacrolimus per day was administered everyday from the time point immediately after establishment of pregnancy was confirmed and until the second trimester of pregnancy, and 2 mg of tacrolimus per day was administered everyday from the third trimester of pregnancy until the delivery. In Case 2 described below, 2 mg of tacrolimus per day was administered everyday from the time point immediately after establishment of pregnancy was confirmed and until the delivery. The treatment was carried out in the same manner as in Example 2. The effects of administering tacrolimus were evaluated on the basis of whether the patients satisfactorily maintained the state of pregnancy without developing pregnancy-induced hypertension syndrome at predetermined time points between the second trimester and the third trimester of pregnancy. Cases in which the evaluation has been roughly completed are as follows.

[2] = test system: repeated implantation failure (RIF) patients with elevated Th1/Th2 cell ratios; test: Tacrolimus treatment of repeated implantation failure (RIF) patients during IVF/ET, prospective cohort study (Example 1); format: in vivo, human
Experimental: This was a prospective cohort study of treatment for RIF patients (n=42) with elevated peripheral blood Th1 (CD4^+/IFN-γ^+)/Th2 (CD4^+/IL-4^+) cell ratios at the Sugiyama clinic between November 2011 and October 2013. Twenty-five patients were treated with tacrolimus (treatment group) and 17 received no treatment (control group).
Treatment group continuously received tacrolimus from two days before embryo transfer until the day of the pregnancy test, for a total of 16 days. The daily dose of tacrolimus (1-3 mg) was determined based on the degree of the Th1/Th2 cell ratio.
A total of 81 patients with a history of 5 or more RIF after IVF/ET cycles were consecutively enrolled in the study at the division of Reproductive Medicine, the Sugiyama clinic, Tokyo, Japan, between November 2011 and February 2014. This study was approved by the Institutional Review Board of the Sugiyama Clinic. A signed informed consent form was obtained from all patients prior to entering the study.
Study patients were assessed by transvaginal ultrasound, hysterosalpingography, and hysteroscopy before the index ART cycle. None of the participants had submucosal fibroids, endometrial polyps, intrauterine adhesions, congenital anomalies of uterus or hydrosalpinges. In addition, none of the women had any history of autoimmune disease. Pregnant women or women with chronic medical or inflammatory conditions were excluded. Women who miscarried in a former IVF cycle or had IVF cycles, or received vaccination in 3 months were excluded in the study. Women with acquired or inherited thrombophilia were also excluded in this study.
Blood was drawn between cycle day (CD) 5 and 10 prior to the index ART cycle for the evaluation of a baseline value of Th1/Th2 cell ratios. Forty-two patients had elevated Th1/Th2 cell ratio (≥10.3) and 39 had normal Th1/Th2 cell ratio (≤10.3). […] Blood was drawn between CD5 and CD10 of the menstrual cycle. A Th1/Th2 cell ratio equal to 10.3 or above was classified as an elevated Th1/Th2 cell ratio, which was determined by the mean plus one standard deviation of Th1/Th2 cell ratio levels.
For the evaluation of a baseline value of Th1/Th2 cell ratios, total 10 ml of venous blood was obtained. Th1 and Th2 cells were determined by detecting the intracellular interferon (IFN)-γ and IL-4 production.
The specific staining of lymphocytes was performed by incubating whole blood with anti-CD4-PC5 or anti-CD8-PC5-conjugated monoclonal antibodies (mAbs) (Beckman Coulter, Fullerton, Calif, USA). The red blood cells (RBCS) were then removed by lysis (FACS Lysing solution; Becton Dickinson, BD Biosciences, Franklin Lake. N.J., USA) and the lymphocytes were analyzed using flow cytometry (FACSCalibur; Becton Dickson). After surface staining of the activated whole blood samples with anti-CD4-PC5 conjugated mAbs, RBC lysis and specific intracellular staining using FASTIMMUNE™ IFN-γ-FITC/IL-4-PE (Becton Dickinson) were subsequently performed according to the manufacturer's instructions. Th1 cells were defined as CD4^+ lymphocytes with intracellular IFN-γ but without IL-4. Th2 cells were detected as CD4^+ lymphocytes with intracellular IL-4 but without IFN-γ. The ratio of IFN-γ to IL-4 positive Th cells was expressed as the Th1/Th2 cell ratio.
In 42 patients with elevated Th1/Th2 cytokine ratios (equal or above 10.3), 25 of them were treated with tacrolimus (PROGRAF®, Astellas Pharma, Tokyo; treatment group), and the others (n=17) were not treated (control group) during the index IVF/ET cycles. The patients in the treatment group began tacrolimus two days prior to ET and continued until the day of pregnancy test, for a total of 16 days. […]

[3] = test system: kidney transplant recipients with tacrolimus exposure during pregnancy; details: cited from earlier work
[4] = 1 mg daily, n = 12, Th1/Th2 cell ratio ≥10.3 and <13.0
[5] = 2 mg daily, n = 8, Th1/Th2 cell ratio ≥13.0 and <15.8
[6] = 3 mg daily, n = 5, Th1/Th2 cell ratio ≥15.8
[7] = treatment group n = 25, tacrolimus 1-3 mg daily for 16 days
[8] = treatment group, 15 newborns, mean ± standard deviation
[9] = treatment group, 15 newborns, mean ± standard deviation, listed as tacrorimus
[10] = 236 babies born from kidney transplant recipients with tacrolimus exposure during pregnancy
[11] = kidney transplant recipients with tacrolimus exposure during pregnancy

Structure (SMILES): C=CCC1/C=C(\C)CC(C)CC(OC)C2OC(O)(C(=O)C(=O)N3CCCCC3C(=O)OC(/C(C)=C/C3CCC(O)C(OC)C3)C(C)C(O)CC1=O)C(C)CC2OC (stereo not shown) [tacrolimus, 17-Allyl-1,14-dihydroxy-12-[2-(4-hydroxy-3-methoxycyclohexyl)-1-methylvinyl]-23,2 5-dimethoxy-13,19,21,27-tetramethyl-11,28-dioxa-4-azatricyclo[22.3.1.04,9]octacos-18-ene-2,3,10,16-tetraone]
- increase in blood pressure ([1]; Case 1 (intrauterine fetal death in week 38 in previous gestation), 3 mg per day until second trimester, 2 mg per day from third trimester until delivery): did not experience an increase in blood pressure
- gave birth to a healthy baby in week ([1]; Case 1, 3 mg per day until second trimester, 2 mg per day from third trimester until delivery): 39 week
- increase in blood pressure ([1]; Case 2 (twin pregnancy with infertilitas and positive anti-phosphorus antibody), 2 mg per day until delivery): did not experience an increase in blood pressure
- gave birth to a healthy baby in week ([1]; Case 2, 2 mg per day until delivery, premature rupture of the membrane caused by cough, premature birth of twin): 35 week
- edema and tendency of blood pressure increase ([1]; Case 3 (intrauterine fetal death in week 32 in previous gestation), 3 mg per day until second trimester, 2 mg per day from third trimester): without edema and without a tendency of blood pressure increase
- currently passing week of pregnancy ([1]; Case 3, 3 mg per day until second trimester, 2 mg per day from third trimester): 34 week
- Clinical pregnancy with 1 mg of tacrolimus (%) [2, 4]: 83.3%
- Live birth with 1 mg of tacrolimus (%) [2, 4]: 83.3%
- Clinical pregnancy With 2 mg of tacrolimus [2, 5]: 50.0%
- Live birth With 2 mg of tacrolimus [2, 5]: 37.5%
- Clinical pregnancy with 3 mg of tacrolimus [2, 6]: 40.0%
- Live birth with 3 mg of tacrolimus [2, 6]: 40.0%
- FET success rate relative to reported success rate (39%) of women under 35 ([2]; FET cycle with tacrolimus, 75% versus 2011 CDC report 39%): 1.9 times
- Positive hCG (%) ([2]; RIF patients with elevated Th1/Th2 cell ratio, treatment group n = 25, tacrolimus 1-3 mg daily for 16 days from two days before ET): 64%
- birth weight (mean±SD) ([2]; newborns of the treatment group, as given in the text): 2,995±400 g
- Spontaneous abortion rate (%) ([2]; pregnant patients of the treatment group, one miscarriage at 10 weeks gestation): 6.3%
- Side effect from tacrolimus ([2]; treatment group n = 25, 1-3 mg daily for 16 days): no significant side effect; also recorded: no one reported side effect
- Clinical pregnancy rate per ET (%) [2, 7]: 64.0%
- Live birth rate (%) [2, 7]: 60%
- Implantation rate (%) ([2]; treatment group n = 25, tacrolimus 1-3 mg daily for 16 days from two days before ET, 16/35): 45.7%
- APGAR score at 1 minutes after birth [2, 8]: 8.3±0.5
- APGAR score at 5 minutes after birth [2, 8]: 9.2±0.5
- Gestational days to delivery [2, 8]: 279.5 ± 10.6 days
- Umbilical cord gas analysis (pH) [2, 8]: 7.2 ± 0.05 pH
- Birth weight (gm) ([2]; treatment group, 15 newborns, mean ± standard deviation (Table 4)): 3,021 ± 371 gm
- APGAR score at 1 minutes after birth [2, 9]: 8.3 ± 0.5
- APGAR score at 5 minutes after birth [2, 9]: 9.2 ± 0.6
- Gestational days to delivery [2, 9]: 279.5 ± 10.6 days
- Live birth rate of fresh ET (%) ([2]; treatment group, fresh ET (n = 9)): 33.3%
- Clinical pregnancy of fresh ET (%) ([2]; treatment group, fresh ET (n = 9), tacrolimus 1-3 mg daily for 16 days): 44.4%
- Live birth rate of thawed ET (%) ([2]; treatment group, frozen-thawed ET (n = 16)): 75%
- Clinical pregnancy of cryo-thaw ET (%) ([2]; treatment group, frozen-thawed ET (n = 16), tacrolimus 1-3 mg daily for 16 days): 75%
- Number of newborns ([2]; women with multiple implantation failures (5 or more) treated with tacrolimus): 15
- neonatal death rate [3, 10]: 2%
- still born rate [3, 10]: 2%
- obstetrical complications: diabetes during pregnancy [3, 11]: 8%
- obstetrical complications: hypertension [3, 11]: 56%
- obstetrical complications: infection [3, 11]: 22%
- obstetrical complications: preeclampsia [3, 11]: 32%
- obstetrical complications: spontaneous abortion [3, 11]: 26%

— patent publication US12576070B2, “Medicine for improving state of pregnancy, and use thereof” (priority 2014, dated 2026)
